Experimental data reported in US20260226006A1, “INDOLE COMPOUND, PREPARATION METHOD THEREFOR AND USE THEREOF” (SUZHOU MERNA THERAPEUTICS CO. LTD, priority 2023, published 2026).

Legend:
THP-1 cells = assay: m6A methylation level of THP-1 cells by LC-MS (Example 19); type: cell-based; details: 24 hours
Experimental: 1*10^8 THP-1 cells were seeded in culture dishes, into which 400 nM compound 1, 4 nM and 400 nM compounds 2b, 5a, and 8b, 4 nM and 4 μM nicotinamide, and 5 μM m6A methylase inhibitor UZH2 were added, respectively. The cells were cultured in an incubator containing 5% CO2 at 37° C. for 24 hours. After culture media were discarded, the cells were washed with PBS and centrifuged to discard the supernatant. 400 μL of an RLT cell lysis buffer was added, and the cells were stored at −80° C. A portion of samples were selected, into which 400 μL of 70% ethanol was added and evenly stirred. 700 μL of a sample was transferred to an RNeasy centrifugation column and centrifuged for 15 seconds (8,000 g, 25° C.). Then, 700 μL of an RW1 buffer solution was added and centrifuged for 15 seconds (8,000 g, 25° C.), followed by the addition of 500 μL of an RPE buffer solution and centrifugation for 16 seconds (8,000 g, 25° C.). The above steps were repeated twice, followed by centrifugation for 2 minutes to completely remove the eluent. 30 μL of nuclease-free water was added to a chromatographic column, and the cells were incubated for 5 minutes and then centrifuged for 2 minutes (12,000 g, 25° C.). The steps were repeated 3 times. 2 μL of an RNA sample was selected and dissolved in 98 μL of a 10 mM Tris buffer solution, and the absorbance at 260 nm was measured using a Nanodrop to determine the RNA concentration.
50 μg of total RNA was selected and dissolved in 100 μL of nuclease-free water. Oligo (dT) magnetic beads were resuspended, 50 μL of the magnetic beads were transferred to a 1.5 mL test tube, 500 μL of a binding buffer solution was added, the mixture was allowed to stand, and the supernatant was removed. 100 μL of an RNA sample was added to 200 μL of a magnetic bead suspension for mixing, the mixture was stirred and incubated in a Thermomixer at 25° C. for 5 minutes, the supernatant was discarded, and then 200 μL of a washing buffer solution was added. The steps were repeated 2 times, and then centrifugation was performed for 10 seconds (2,000 g, 25° C.). 50 μL of an elution buffer solution was added and evenly mixed, the mixture was heated to 75° C., the supernatant was transferred to a new 1.5 mL test tube and purified using an RNA Clean & Concentrator kit, and the RNA concentration was determined.
20 μL (approximately 200 ng) of an mRNA sample and 20 μL of a Nuclease P1 digestion premix (including 0.5 μL of 2 unit/μL Nuclease P1, 0.4 μL of 5 M NaCl, 2 μL of 0.1 M ZnCl2, and 17.1 μL of PCR-grade water) were added into each test tube, and the mixture was stirred and incubated in a Thermomixer at 37° C. for 2 hours. 2 μL of a 2 M NH4HCO3 solution and 1 unit of alkaline phosphatase were added, and the mixture was stirred and incubated in a Thermomixer at 37° C. for 2 hours. 1 μL of a 1.2 M HCl neutralization solution was added, and centrifugation was performed for 30 minutes (16,000 g, 4° C.). 20 μL of the supernatant was collected, an m6A methylation fragment was analyzed by LC-MS, and the m6A inhibition rate was calculated.
m6A inhibition rate (%)=(measured ion peak area−blank control)/(positive ion peak area−blank control)*100.

[1] = system: skin of hind limb toes of mice; assay: Kinase inhibitor-induced mouse models with hand-foot skin reaction (Example 24); type: in vivo, ICR mice; details: for expression level of cytokine IL-1β in skin tissues of hind limb toes / thickening of the epidermal layer and the stratum corneum in the skin tissues (pathological staining) / swelling of the toes caused by the modeling drugs: compound 2b 3% ointment topical or nicotinamide 100 mg/kg oral; for thickening of the epidermal layer and the stratum corneum in the skin tissues (pathological staining) / swelling of the toes caused by the modeling drugs: sorafenib or osimertinib model; for swelling of the toes caused by the modeling drugs: once daily 16 days; for degree of swelling of hind limb toes / epidermal layer and stratum corneum in skin tissues of hind limb toes (pathological staining): modeling drug oral for 14 days; for skin appearance of hind limb toes: modeling for 14 days, sorafenib 100 mg/kg or osimertinib 10 mg/kg oral
Text: After adaptive feeding for 7 days, SPF-grade ICR mice (male, 5-6 weeks old, with a body weight of approximately 35 g) were randomly divided into groups, including a blank control group (6 mice), a sorafenib modeling group (6 mice), an osimertinib modeling group (6 mice), a sorafenib+compound 2b group (6 mice), an osimertinib+compound 2b group (6 mice), a sorafenib+nicotinamide group (6 mice), and an osimertinib+nicotinamide group (6 mice). The groups were respectively administered corresponding modeling drugs by oral gavage (sorafenib at 100 mg/kg and osimertinib at 10 mg/kg) once daily, and the blank control group was administered an equivalent volume of normal saline. After administration with the chemotherapeutic drugs for 2 weeks, the compound ointments (at a compound content of 3%) used in Example 22 were respectively applied topically in the groups or nicotinamide was orally administered (100 mg/kg) once daily continuously for 16 days.
Measurement of the degree of swelling of toes: The degree of swelling of hind limb toes of the mice was measured using a toe swelling tester (KW-7C, Nanjing Calvin Biotechnology Co., Ltd.) before administration with the modeling drugs, after administration with the modeling drugs for 2 weeks, and before sacrifice, respectively. Before measurement, ankle joints of hind paws of the mice were marked at same positions before administration, after administration for 2 weeks, and before sacrifice. During measurement, water was properly located at the same level as the marked positions, and numerical values were recorded after becoming stable.
Pathological staining of skin tissues: Skin tissue samples were selected from hind limb toes of the mice and placed in 4% paraformaldehyde for fixation at room temperature for 4 hours. Then, the tissues were taken out and rinsed with running water for several hours. The samples were subjected to dehydration treatment with 70%, 80%, and 90% ethanol solutions, followed by treatment with a mixed solution of equal amounts of absolute alcohol and xylene for 15 minutes, and then permeabilized twice with a xylene solution for 15 minutes each time until the samples became transparent. The samples were placed in a mixture of half xylene and half paraffin for soaking for 15 minutes, and then, paraffin I and paraffin II were added for wax penetration for one hour, respectively. After embedding with paraffin, the samples were sectioned, baked, dewaxed, and hydrated. Then, the hydrated sections were placed in a hematoxylin solution (ZSGB-BIO, article No. 23041001) for staining for 3 minutes, and a differentiation solution of hydrochloric acid in ethanol was added for differentiation for 15 seconds. After rinsing with water, a Scott bluing solution (Servicebio, article No. 20230801) was added for bluing for 15 seconds. After rinsing with running water, the sections were stained with an eosin solution (Solarbio, article No. 33535) for 3 minutes, rinsed with running water, dehydrated, permeabilized, sealed, and inspected under a microscope.
Immunohistochemical staining: After baking, dewaxing, and hydration, paraffin sections of skin tissues of hind limb toes of the mice were subjected to antigen retrieval using a 0.2 M citric acid buffer solution (containing 1.534 g of citric acid, 3.1 g of sodium citrate, and 100 mL of distilled water, pH 4.7). Endogenous […] was removed using 3% hydrogen peroxide (Shandong Annjet High-Tech Disinfection Technology Co., Ltd., article No. 20290902), and the sections were incubated at room temperature for 10 minutes and then fully rinsed with a PBS buffer solution (containing 8 g of NaCl, 0.2 g of KCl, 1.44 g of Na2HPO4, and 1 M HCl, pH 7.4). The sections were permeabilized with 0.5% Triron-X-100 (AmyJet Scientific, article No. A-CSH436-100 mL), respectively permeabilized with mouse anti-IL-1β and rabbit IL-8 for 10 minutes, and not permeabilized with rabbit anti-IL-6. […]

| Compound | m6A methylation level of mRNA of the cells (THP-1 cells; 4 nM and 400 nM) | expression level of cytokine IL-1β in skin tissues of hind limb toes ([1]; osimertinib model) | expression level of cytokine IL-1β in skin tissues of hind limb toes ([1]; sorafenib model) | thickening of the epidermal layer and the stratum corneum in the skin tissues (pathological staining) [1] | swelling of the toes caused by the modeling drugs [1] | degree of swelling of hind limb toes [1] | epidermal layer and stratum corneum in skin tissues of hind limb toes (pathological staining) [1] | skin appearance of hind limb toes [1] | also measured |
| --- | --- | --- | --- | --- | --- | --- | --- | --- | --- |
| NC(=O)[C@H]1CCCc2c1[nH]c1ccc(Cl)cc21 [Compound 2b, (S)-6-chloro-2,3,4,9-tetrahydro-1H-carbazole-1-carboxamide] | significantly inhibit | significantly decrease | significantly decrease | effectively alleviate | effectively alleviate |  |  |  | m6A inhibition activity (THP-1 cells; 400 nM): comparable to that of the m6A methylase inhibitor UZH2 at a concentration of 5 μM |
| NC(=O)C1c2[nH]c3ccc(Cl)cc3c2C2CCC1C2 [Compound 5a, (S)-2-chloro-5,6,7,8,9,10-hexahydro-7,10-methanocyclohepta[b]indole-6-carboxamide] | significantly inhibit |  |  |  |  |  |  |  |  |
| CN1CC[C@H](C(N)=O)c2[nH]c3ccc(Cl)cc3c21 [Compound 8b, (S)-8-chloro-1-methyl-2,3,4,5-tetrahydropyrido[3,2-b]indole-4-carboxamide] | significantly inhibit |  |  |  |  |  |  |  |  |
| NC(=O)c1cccnc1 [Nicotinamide, nicotinamide] |  | does not have a significant impact | does not have a significant impact | does not significantly alleviate | not observed that oral administration of the nicotinamide at 100 mg/kg significantly alleviates the swelling |  |  |  | m6A methylation level of mRNA of the cells (THP-1 cells; 4 nM and 4 μM): no inhibitory effect |
| C=CC(=O)Nc1cc(Nc2nccc(-c3cn(C)c4ccccc34)n2)c(OC)cc1N(C)CCN(C)C [Osimertinib, osimertinib, reference compound] |  |  |  |  |  | significant swelling | significantly thickened | obvious erythema and rhagades | cytokine IL-1β in skin tissues of hind limb toes (immunohistochemistry) ([1]; osimertinib oral for 14 days): significantly increased |
| CNC(=O)c1cc(Oc2ccc(NC(=O)Nc3ccc(Cl)c(C(F)(F)F)c3)cc2)ccn1 [Sorafenib, sorafenib, reference compound] |  |  |  |  |  | significant swelling | significantly thickened | obvious erythema and rhagades | cytokine IL-1β in skin tissues of hind limb toes (immunohistochemistry) ([1]; sorafenib oral for 14 days): significantly increased |
